system: Alternaria solani; assay: Alternaria solani (Early Blight of Tomato/Potato): radial mycelial growth on potato dextrose agar; format: cell-based; conditions: 168 h, potato dextrose agar, 25° C., 60% relative humidity, seven days, read-out: control (radial growth compared to the untreated check)
Procedure: Compounds were dissolved in 0.3% dimethyl sulfoxide and then added to potato dextrose agar medium just prior to dispensing it into petri dishes. 5 mL medium with the compound in the desired concentration was dispensed into 60 mm sterile petri-plates. After solidification each plate was seeded with a 5 mm size mycelial disc taken from the periphery of an actively growing virulent culture plate. Plates were incubated in growth chambers at 25° C. temperature and 60% relative humidity for seven days and then the radial growth was measured and compared to that of the untreated control. Compounds 2 85 89 92 94 108 113 114 131 138 142 143

| Structure (SMILES) | inhibition of growth at 300 ppm |
| --- | --- |
| COc1ccc(NC(=O)c2cn3ccc(-c4noc(C(F)(F)F)n4)cc3n2)cc1 [Compound 2, N-(4-methoxyphenyl)-7-(5-(trifluoromethyl)-1,2,4-oxadiazol-3-yl)imidazo[1,2-a]pyridine-2-carboxamide] | ≥ 70% |
| O=C(NCc1cn2cc(-c3noc(C(F)(F)F)n3)ccc2n1)c1cccc(Cl)c1 [Compound 85, 3-chloro-N-((6-(5-(trifluoromethyl)-1,2,4-oxadiazol-3-yl)imidazo[1,2-a]pyridin-2-yl)methyl)benzamide] | ≥ 70% |
| O=C(NCc1cn2cc(-c3noc(C(F)(F)F)n3)ccc2n1)c1ccc(OC(F)(F)F)cc1 [Compound 89, 4-(trifluoromethoxy)-N-((6-(5-(trifluoromethyl)-1,2,4-oxadiazol-3-yl)imidazo[1,2-a]pyridin-2-yl)methyl)benzamide] | ≥ 70% |
| FC(F)(F)c1nc(-c2ccc3nc(CSCc4ccccc4)cn3c2)no1 [Compound 108, 3-(2-((benzylthio)methyl)imidazo[1,2-a]pyridin-6-yl)-5-(trifluoromethyl)-1,2,4-oxadiazole] | ≥ 70% |
| CS(=O)(=NC(=O)Cc1cn2cc(-c3noc(C(F)(F)F)n3)ccc2n1)c1cccc(F)c1 (centres unmarked) [Compound 131, N-((3-fluorophenyl)(methyl)(oxo)-λ^6-sulfaneylidene)-2-(6-(5-(trifluoromethyl)-1,2,4-oxadiazol-3-yl)imidazo[1,2-a]pyridin-2-yl)acetamide] | ≥ 70% |
| CS(=O)(=NC(=O)Cc1cn2cc(-c3noc(C(F)(F)F)n3)ccc2n1)c1ccc(Cl)c(Cl)c1 (centres unmarked) [Compound 143, N-((3,4-dichlorophenyl)(methyl)(oxo)-λ^6-sulfaneylidene)-2-(6-(5-(trifluoromethyl)-1,2,4-oxadiazol-3-yl)imidazo[1,2-a]pyridin-2-yl)acetamide] | ≥ 70% |
| Cc1ccccc1S(C)(=O)=NC(=O)Cc1cn2cc(-c3noc(C(F)(F)F)n3)ccc2n1 (centres unmarked) [Compound 148, N-(methyl(oxo)(o-tolyl)-λ^6-sulfaneylidene)-2-(6-(5-(trifluoromethyl)-1,2,4-oxadiazol-3-yl)imidazo[1,2-a]pyridin-2-yl)acetamide] | ≥ 70% |
| CS(=O)(=NC(=O)Cc1cn2cc(-c3noc(C(F)(F)F)n3)ccc2n1)c1cccc(Cl)c1 (centres unmarked) [Compound 149, N-((3-chlorophenyl)(methyl)(oxo)-λ^6-sulfaneylidene)-2-(6-(5-(trifluoromethyl)-1,2,4-oxadiazol-3-yl)imidazo[1,2-a]pyridin-2-yl)acetamide] | ≥ 70% |

system: Phakopsora pachyrhizi; assay: Phakopsora pachyrhizi Test on Soybean (preventive activity, greenhouse); format: in vivo; conditions: preventive spray on young Soybean plants, inoculated one day after treatment, rated 3, 7, 10 and 15 days after application, read-out: Efficacy (% control), disease severity compared to the untreated check
Procedure: Compounds were dissolved in 2% dimethyl sulfoxide/acetone and then mixed with water containing an emulsifier to a calibrated spray volume of 50 mL. This 50 mL spray solution was poured into spray bottles for further applications. To test the preventive activity of compounds, healthy young Soybean plants raised in the greenhouse were sprayed with the active compound preparation at the stated application rates inside the spray cabinets using hollow cone nozzles. One day after treatment, the plants were inoculated with a spore suspension containing 2×10^5 Phakopsora pachyrhizi conidia. The inoculated plants were then kept in a greenhouse chamber at 22-24° C. temperature and 80-90% relative humidity for disease expression. A visual assessment of the compound's performance was carried out by rating the disease severity (0-100% scale) on treated plants 3, 7, 10 and 15 days after application. Efficacy (% control) of the compounds was calculated by comparing the disease rating in the treatment with the one of the untreated control. The sprayed plants were also assessed for plant compatibility by recording symptoms like necrosis, chlorosis and stunting.

| Structure (SMILES) | pest or weed control at 500 ppm |
| --- | --- |
| COc1ccc(NC(=O)c2cn3ccc(-c4noc(C(F)(F)F)n4)cc3n2)cc1 [Compound 2, N-(4-methoxyphenyl)-7-(5-(trifluoromethyl)-1,2,4-oxadiazol-3-yl)imidazo[1,2-a]pyridine-2-carboxamide] | ≥ 70% |
| O=C(NCc1cn2cc(-c3noc(C(F)(F)F)n3)ccc2n1)c1cccc(Cl)c1 [Compound 85, 3-chloro-N-((6-(5-(trifluoromethyl)-1,2,4-oxadiazol-3-yl)imidazo[1,2-a]pyridin-2-yl)methyl)benzamide] | ≥ 70% |
| O=C(NCc1cn2cc(-c3noc(C(F)(F)F)n3)ccc2n1)c1ccc(OC(F)(F)F)cc1 [Compound 89, 4-(trifluoromethoxy)-N-((6-(5-(trifluoromethyl)-1,2,4-oxadiazol-3-yl)imidazo[1,2-a]pyridin-2-yl)methyl)benzamide] | ≥ 70% |
| Fc1ccc(SCc2cn3cc(-c4noc(C(F)(F)F)n4)ccc3n2)cc1 [Compound 105, 3-(2-(((4-fluorophenyl)thio)methyl)imidazo[1,2-a]pyridin-6-yl)-5-(trifluoromethyl)-1,2,4-oxadiazole] | ≥ 70% |
| Fc1ccccc1SCc1cn2cc(-c3noc(C(F)(F)F)n3)ccc2n1 [Compound 106, 3-(2-(((2-fluorophenyl)thio)methyl)imidazo[1,2-a]pyridin-6-yl)-5-(trifluoromethyl)-1,2,4-oxadiazole] | ≥ 70% |
| CCCSCc1cn2cc(-c3noc(C(F)(F)F)n3)ccc2n1 [Compound 107, 3-(2-((propylthio)methyl)imidazo[1,2-a]pyridin-6-yl)-5-(trifluoromethyl)-1,2,4-oxadiazole] | ≥ 70% |
| COc1ccc(CSCc2cn3cc(-c4noc(C(F)(F)F)n4)ccc3n2)cc1 [Compound 109, 3-(2-(((4-methoxybenzyl)thio)methyl)imidazo[1,2-a]pyridin-6-yl)-5-(trifluoromethyl)-1,2,4-oxadiazole] | ≥ 70% |
| FC(F)(F)c1nc(-c2ccc3nc(CSc4ccc(Cl)c(Cl)c4)cn3c2)no1 [Compound 110, 3-(2-(((3,4-dichlorophenyl)thio)methyl)imidazo[1,2-a]pyridin-6-yl)-5-(trifluoromethyl)-1,2,4-oxadiazole] | ≥ 70% |
| O=S(=O)(Cc1cn2cc(-c3noc(C(F)(F)F)n3)ccc2n1)c1cccc(F)c1 [Compound 120, 3-(2-(((3-fluorophenyl)sulfonyl)methyl)imidazo[1,2-a]pyridin-6-yl)-5-(trifluoromethyl)-1,2,4-oxadiazole] | ≥ 70% |
| O=S(=O)(Cc1cn2cc(-c3noc(C(F)(F)F)n3)ccc2n1)c1ccc(F)cc1 [Compound 121, 3-(2-(((4-fluorophenyl)sulfonyl)methyl)imidazo[1,2-a]pyridin-6-yl)-5-(trifluoromethyl)-1,2,4-oxadiazole] | ≥ 70% |
| COc1ccc(CS(=O)(=O)Cc2cn3cc(-c4noc(C(F)(F)F)n4)ccc3n2)cc1 [Compound 122, 3-(2-(((4-methoxybenzyl)sulfonyl)methyl)imidazo[1,2-a]pyridin-6-yl)-5-(trifluoromethyl)-1,2,4-oxadiazole] | ≥ 70% |
| [O-][S+](Cc1cn2cc(-c3noc(C(F)(F)F)n3)ccc2n1)c1ccc(Cl)c(Cl)c1 (centres unmarked) [Compound 126, 3-(2-(((3,4-dichlorophenyl)sulfinyl)methyl)imidazo[1,2-a]pyridin-6-yl)-5-(trifluoromethyl)-1,2,4-oxadiazole] | ≥ 70% |
| [O-][S+](Cc1cn2cc(-c3noc(C(F)(F)F)n3)ccc2n1)c1cccc(Cl)c1 (centres unmarked) [Compound 127, 3-(2-(((3-chlorophenyl)sulfinyl)methyl)imidazo[1,2-a]pyridin-6-yl)-5-(trifluoromethyl)-1,2,4-oxadiazole] | ≥ 70% |
| CS(=O)(=NC(=O)Cc1cn2cc(-c3noc(C(F)(F)F)n3)ccc2n1)c1ccccc1 (centres unmarked) [Compound 129, N-(methyl(oxo)(phenyl)-λ^6-sulfanylidene)-2-(6-(5-(trifluoromethyl)-1,2,4-oxadiazol-3-yl)imidazo[1,2-a]pyridin-2-yl)acetamide] | ≥ 70% |
| CS(=O)(=NC(=O)Cc1cn2cc(-c3noc(C(F)(F)F)n3)ccc2n1)c1ccccc1F (centres unmarked) [Compound 130, N-((2-fluorophenyl)(methyl)(oxo)-λ^6-sulfaneylidene)-2-(6-(5-(trifluoromethyl)-1,2,4-oxadiazol-3-yl)imidazo[1,2-a]pyridin-2-yl)acetamide] | ≥ 70% |
| N=S(=O)(Cc1cn2ccc(-c3noc(C(F)(F)F)n3)cc2n1)c1ccccc1 (centres unmarked) [Compound 164, imino(phenyl)((7-(5-(trifluoromethyl)-1,2,4-oxadiazol-3-yl)imidazo[1,2-a]pyridin-2-yl)methyl)-λ^6-sulfanone] | ≥ 70% |
| COc1ccc(S(=N)(=O)Cc2cn3ccc(-c4noc(C(F)(F)F)n4)cc3n2)cc1 (centres unmarked) [Compound 165, imino(4-methoxyphenyl)((7-(5-(trifluoromethyl)-1,2,4-oxadiazol-3-yl)imidazo[1,2-a]pyridin-2-yl)methyl)-λ^6-sulfanone] | ≥ 70% |
| N=S(=O)(Cc1cn2ccc(-c3noc(C(F)(F)F)n3)cc2n1)c1ccc(Cl)cc1 (centres unmarked) [Compound 166, (4-chlorophenyl)(imino)((7-(5-(trifluoromethyl)-1,2,4-oxadiazol-3-yl)imidazo[1,2-a]pyridin-2-yl)methyl)-λ^6-sulfanone] | ≥ 70% |
